Source: ChEMBL document CHEMBL4270599, “Synthesis of a 3'-C-ethynyl-β-d-ribofuranose purine nucleoside library: Discovery of C7-deazapurine analogs as potent antiproliferative nucleosides” (Eur J Med Chem, 2018)

Key:
Assay type in all cases: functional
[1] = tested on: HCT-116; assay: Growth inhibition of human HCT116 cells assessed as cell growth at 10^-4 M incubated for 48 hrs by sulforhodamine B assay relative to control; settings: HCT-116, 48 h, read-out: Activity
[2] = tested on: U-251; assay: Growth inhibition of human U251 cells assessed as cell growth at 10^-6 M incubated for 48 hrs by sulforhodamine B assay relative to control; settings: U-251, 48 h, read-out: Activity
[3] = tested on: UACC-62; assay: Growth inhibition of human UACC62 cells assessed as cell growth at 10^-8 M incubated for 48 hrs by sulforhodamine B assay relative to control; settings: UACC-62, 48 h, read-out: Activity
[4] = tested on: A498; assay: Growth inhibition of human A498 cells assessed as cell growth at 10^-7 M incubated for 48 hrs by sulforhodamine B assay relative to control; settings: A498, 48 h, read-out: Activity
[5] = tested on: A549; assay: Growth inhibition of human A549/ATCC cells assessed as cell growth at 10^-6 M incubated for 48 hrs by sulforhodamine B assay relative to control; settings: A549, 48 h, read-out: Activity
[6] = tested on: RPMI-8226; assay: Growth inhibition of human RPMI8226 cells assessed as cell growth at 10^-7 M incubated for 48 hrs by sulforhodamine B assay relative to control; settings: RPMI-8226, 48 h, read-out: Activity
[7] = tested on: MDA-MB-231; assay: Growth inhibition of human MDA-MB-231 cells assessed as cell growth at 10^-4 M incubated for 48 hrs by sulforhodamine B assay relative to control; settings: MDA-MB-231, 48 h, read-out: Activity
[8] = tested on: NCI-H522; assay: Cytotoxicity against human NCI-H522 cells after 48 hrs by SRB assay; settings: NCI-H522, 48 h; for GI50: read-out: GI50; for TGI: read-out: TGI
[9] = tested on: IGROV-1; assay: Cytotoxicity against human IGROV1 cells after 48 hrs by SRB assay; settings: IGROV-1, 48 h
[10] = tested on: CCRF-CEM; assay: Growth inhibition of human CCRF-CEM cells assessed as cell growth at 10^-5 M incubated for 48 hrs by sulforhodamine B assay relative to control; settings: read-out: Activity
[11] = tested on: SN12C; assay: Growth inhibition of human SN12C cells assessed as cell growth at 10^-5 M incubated for 48 hrs by sulforhodamine B assay relative to control; settings: read-out: Activity
[12] = tested on: ACHN; assay: Growth inhibition of human ACHN cells assessed as cell growth at 10^-6 M incubated for 48 hrs by sulforhodamine B assay relative to control; settings: read-out: Activity
[13] = tested on: NCI-H522; assay: Growth inhibition of human NCI-H522 cells assessed as cell growth at 10^-8 M incubated for 48 hrs by sulforhodamine B assay relative to control; settings: NCI-H522, 48 h, read-out: Activity
[14] = tested on: UACC-257; assay: Cytotoxicity against human UACC257 cells after 48 hrs by SRB assay; settings: UACC-257, 48 h; for GI50: read-out: GI50; for CC50: read-out: LC50 (the source's name); for TGI: read-out: TGI
[15] = tested on: SK-OV-3; assay: Growth inhibition of human SKOV3 cells assessed as cell growth at 10^-4 M incubated for 48 hrs by sulforhodamine B assay relative to control; settings: SK-OV-3, 48 h, read-out: Activity
[16] = tested on: T47D; assay: Cytotoxicity against human T47D cells after 48 hrs by SRB assay; settings: for CC50: read-out: pLC50 (the source's name) (converted)
[17] = tested on: SF-268; assay: Cytotoxicity against human SF268 cells after 48 hrs by SRB assay; settings: SF-268, 48 h; for GI50: read-out: GI50; for CC50: read-out: LC50 (the source's name); for TGI: read-out: TGI
[18] = tested on: MDA-MB-435; assay: Growth inhibition of human MDA-MB-435 cells assessed as cell growth at 10^-7 M incubated for 48 hrs by sulforhodamine B assay relative to control; settings: MDA-MB-435, 48 h, read-out: Activity
[19] = tested on: Malme-3M; assay: Growth inhibition of human MALME-3M cells assessed as cell growth at 10^-6 M incubated for 48 hrs by sulforhodamine B assay relative to control; settings: read-out: Activity
[20] = tested on: SNB-75; assay: Growth inhibition of human SNB75 cells assessed as cell growth at 10^-6 M incubated for 48 hrs by sulforhodamine B assay relative to control; settings: SNB-75, 48 h, read-out: Activity
[21] = tested on: MDA-MB-435; assay: Growth inhibition of human MDA-MB-435 cells assessed as cell growth at 10^-5 M incubated for 48 hrs by sulforhodamine B assay relative to control; settings: MDA-MB-435, 48 h, read-out: Activity
[22] = tested on: SNB-19; assay: Growth inhibition of human SNB19 cells assessed as cell growth at 10^-8 M incubated for 48 hrs by sulforhodamine B assay relative to control; settings: SNB-19, 48 h, read-out: Activity
[23] = tested on: CCRF-CEM; assay: Growth inhibition of human CCRF-CEM cells assessed as cell growth at 10^-8 M incubated for 48 hrs by sulforhodamine B assay relative to control; settings: read-out: Activity
[24] = tested on: LOX IMVI; assay: Cytotoxicity against human LOXIMVI cells after 48 hrs by SRB assay; settings: for GI50: read-out: GI50; for CC50: read-out: LC50 (the source's name); for TGI: read-out: TGI
[25] = tested on: SK-MEL-5; assay: Growth inhibition of human SK-MEL-5 cells assessed as cell growth at 10^-7 M incubated for 48 hrs by sulforhodamine B assay relative to control; settings: SK-MEL-5, 48 h, read-out: Activity
[26] = tested on: OVCAR-4; assay: Growth inhibition of human OVCAR4 cells assessed as cell growth at 10^-8 M incubated for 48 hrs by sulforhodamine B assay relative to control; settings: OVCAR-4, 48 h, read-out: Activity
[27] = tested on: A549; assay: Cytotoxicity against human A549 cells after 48 hrs by SRB assay; settings: A549, 48 h; for GI50: read-out: GI50
[28] = tested on: HL-60(TB); assay: Cytotoxicity against human HL-60(TB) cells after 48 hrs by SRB assay; settings: HL-60, 48 h; for GI50: read-out: GI50; for TGI: read-out: TGI; for CC50: read-out: pLC50 (the source's name) (converted)
[29] = tested on: NCI-H460; assay: Growth inhibition of human NCI-H460 cells assessed as cell growth at 10^-6 M incubated for 48 hrs by sulforhodamine B assay relative to control; settings: NCI-H460, 48 h, read-out: Activity
[30] = tested on: HL-60(TB); assay: Growth inhibition of human HL-60(TB) cells assessed as cell growth at 10^-7 M incubated for 48 hrs by sulforhodamine B assay relative to control; settings: HL-60, 48 h, read-out: Activity
[31] = tested on: UACC-62; assay: Growth inhibition of human UACC62 cells assessed as cell growth at 10^-5 M incubated for 48 hrs by sulforhodamine B assay relative to control; settings: UACC-62, 48 h, read-out: Activity
[32] = read-out: LC50 (the source's name)
[33] = read-out: pLC50 (the source's name) (converted)

Structure (SMILES): C#C[C@@]1(O)[C@@H](CO)O[C@@H](n2cc(I)c3c(N)ncnc32)[C@@H]1O
- growth at 100 µM [1]: 4%
- growth at 1 µM [2]: 6 to 9%
- growth at 0.01 µM [3]: 95%
- growth at 0.1 µM [4]: 74 to 89%
- growth at 1 µM [5]: 29 to 41%
- growth at 0.1 µM [6]: 71 to 90%
- growth at 100 µM [7]: 11 to 12%
- GI50 [8]: 64.8 to 152 nM
- CC50 [8, 32]: > 100000 nM
- TGI [8]: 516 to 698 nM
- CC50 [9, 32]: > 100000 nM
- growth at 10 µM [10]: 5 to 6%
- growth at 10 µM [11]: 5 to 7%
- growth at 1 µM [12]: 28%
- growth at 0.01 µM [13]: 83 to 85%
- GI50 [14]: 2180 to 2500 nM
- CC50 [14]: > 100000 nM
- TGI [14]: 18600 to 41500 nM
- growth at 100 µM [15]: -9%
- TGI ([16]; read-out: TGI): 51 to 315 nM
- GI50 ([16]; read-out: pGI50 (converted)): < 10 nM
- CC50 [16]: > 100000 nM
- GI50 [17]: 941 to 1280 nM
- CC50 [17]: > 100000 nM
- TGI [17]: 32200 to 77300 nM
- growth at 0.1 µM [18]: 66 to 73%
- growth at 1 µM [19]: 39 to 61%
- growth at 1 µM [20]: 27 to 39%
- growth at 10 µM [21]: 3 to 4%
- growth at 0.01 µM [22]: 88 to 92%
- growth at 0.01 µM [23]: 97%
- GI50 [24]: 39.7 to 81.2 nM
- CC50 [24]: > 100000 nM
- TGI [24]: 241 to 1220 nM
- growth at 0.1 µM [25]: 62 to 65%
- growth at 0.01 µM [26]: 90 to 104%
- GI50 [27]: 297 to 589 nM
- CC50 [27, 32]: > 100000 nM
- TGI ([27]; read-out: TGI): > 100000 nM
- TGI ([27]; read-out: pTGI (converted)): > 100000 nM
- GI50 [28]: 31.5 to 67.8 nM
- TGI [28]: 200 to 343 nM
- CC50 [28]: > 100000 nM
- growth at 1 µM [29]: 6 to 9%
- growth at 0.1 µM [30]: 16 to 43%

Structure (SMILES): C#C[C@@]1(O)[C@@H](CO)O[C@@H](n2cc(Br)c3c(N)ncnc32)[C@@H]1O
- growth at 100 µM [1]: 3 to 5%
- growth at 0.01 µM [3]: 93 to 101%
- growth at 0.1 µM [4]: 88 to 98%
- growth at 0.1 µM [6]: 41 to 83%
- growth at 100 µM [7]: 9%
- GI50 [8]: 61.3 to 156 nM
- TGI [8]: 332 to 593 nM
- CC50 [8, 33]: > 100000 nM
- GI50 ([9]; read-out: GI50): 27.8 to 69.9 nM
- TGI ([9]; read-out: TGI): 485 nM
- CC50 [9, 33]: > 100000 nM
- TGI ([9]; read-out: pTGI (converted)): 490 nM
- growth at 10 µM [10]: 3 to 5%
- growth at 10 µM [11]: 1 to 3%
- growth at 1 µM [12]: 8%
- growth at 0.01 µM [13]: 89 to 95%
- GI50 [14]: 2820 to 5900 nM
- CC50 [14]: > 100000 nM
- TGI [14]: 49200 to 77000 nM
- GI50 ([16]; read-out: GI50): 17.3 to 43.2 nM
- TGI ([16]; read-out: TGI): 177 nM
- CC50 [16]: > 100000 nM
- TGI ([16]; read-out: pTGI (converted)): 178 nM
- GI50 [17]: 467 to 498 nM
- CC50 [17]: > 100000 nM
- TGI [17]: 33200 to 80600 nM
- growth at 0.1 µM [18]: 51 to 70%
- growth at 1 µM [19]: 43 to 47%
- growth at 0.01 µM [22]: 64 to 98%
- growth at 0.01 µM [23]: 96 to 100%
- GI50 [24]: 29 to 105 nM
- CC50 [24]: 720 to 2130 nM
- TGI [24]: 176 to 351 nM
- growth at 0.1 µM [25]: 30 to 71%
- growth at 10 µM [31]: 4 to 8%
- growth at 0.01 µM [26]: 96 to 100%
- GI50 [27]: 90 to 283 nM
- CC50 [27, 33]: > 100000 nM
- GI50 [28]: 21.8 to 71.6 nM
- TGI [28]: 75.7 to 313 nM
- CC50 [28]: 5250 nM
